From publication PMC10053003, “Study on Pharmacokinetics and Metabolic Profiles of Novel Potential PLK-1 Inhibitors by UHPLC-MS/MS Combined with UHPLC-Q-Orbitrap/HRMS” (Molecules, 2023)
Where two headings read alike, the source gives them in different places.

Assays:
NCI-H2030 cells = test: Cell proliferation inhibition, NCI-H2030 (ATPlite); assay type: cell-based; settings: Homo sapiens, 72 h incubation, read-out: NCI-H2030 IC50 (cell viability)
Experimental: (§1) HCT-116 or NCI-H2030 cells were seeded in 96-well plates at a density of 720/well and cultured overnight in a 5% CO2 incubator at 37 ± 1 °C. The compounds were diluted and added at a ratio of 1:3. After incubation for 72 h, ATPlite 1step Luminescence was added and incubated in the dark for 3 min, then was vortexed at 500 rpm for 2 min, and the luminous intensity was detected by the microplate reader and the cell inhibition was calculated as follows:Inhibition (%) = 100 − (Lum compound − Lum medium)/(Lum control − Lum medium) × 100%

PLK1 kinase = target: T1, PLK1 kinase (Homo sapiens, UniProt P53350); test: PLK1 kinase inhibition activity; assay type: biochemical
T1 construct: purchased CarnaBio 05–157
T1 sequence (P53350 whole entry): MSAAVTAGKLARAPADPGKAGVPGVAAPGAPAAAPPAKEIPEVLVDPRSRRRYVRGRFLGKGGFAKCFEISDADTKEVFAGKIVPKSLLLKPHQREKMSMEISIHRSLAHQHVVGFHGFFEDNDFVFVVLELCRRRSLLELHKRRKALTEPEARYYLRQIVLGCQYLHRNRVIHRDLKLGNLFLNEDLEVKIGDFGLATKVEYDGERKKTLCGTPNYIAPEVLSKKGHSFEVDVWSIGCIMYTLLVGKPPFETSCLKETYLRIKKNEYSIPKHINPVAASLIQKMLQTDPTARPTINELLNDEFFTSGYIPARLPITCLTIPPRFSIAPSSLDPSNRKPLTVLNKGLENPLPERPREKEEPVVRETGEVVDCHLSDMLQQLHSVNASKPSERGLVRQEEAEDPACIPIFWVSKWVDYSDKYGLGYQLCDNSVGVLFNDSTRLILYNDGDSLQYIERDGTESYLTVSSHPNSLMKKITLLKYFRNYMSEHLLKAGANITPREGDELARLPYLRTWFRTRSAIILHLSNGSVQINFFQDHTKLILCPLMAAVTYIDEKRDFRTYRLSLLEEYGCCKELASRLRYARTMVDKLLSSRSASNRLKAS
Experimental: The compounds were diluted at a 1:3 ratio on a 384-well plate with the highest concentration of 1 μM, and a total of 10 concentration points were tested. The mixture of PLK1 kinase and peptide substrate (5 μL) was added to each well. […] The results were tested by EnVision and analyzed using XLFIT5 software.

HCT-116 cells = test: Cell proliferation inhibition, HCT-116 (ATPlite); assay type: cell-based; settings: Homo sapiens, 72 h incubation, read-out: HCT-116 IC50 (cell viability)
Experimental: as §1

[1] = assay type: in vitro ADME; settings: incubation of 7a in rat liver microsomes with NADPH
Experimental: Liver microsomes were used to investigate the metabolism clearance of 7a. In addition, 5 µL of rat liver microsome (20 mg/mL), 2 µL of 7a or onvansertib (100 µM), and 173 µL of PBS buffer (0.1 M, pH 7.4) were added to 1.5 mL Eppendorf tubes. After pre-incubation for 10 min at 37 °C, the reaction was initiated by adding an NADPH-generating system (20 µL) into the microsomal suspension. A system without NADPH was set as a negative control. After incubations for 10 min, 30 min, or 60 min, 400 µL of ice acetonitrile was added to quench the reaction. The supernatants were injected into Q Exactive ™ combined quadrupole Orbitrap mass spectrometer (Thermo Scientific, Waltham, MA, USA) for metabolite profiling and identification. The concentration of the compound to be measured at 0 min was defined as 100%, and the concentration at other times was converted into a residual percentage.

[2] = Pharmacokinetics in rats after intravenous administration; assay type: in vivo; settings: Sprague-Dawley, rat, plasma, i.v. 1 mg/kg
Experimental: The pharmacokinetic characteristics of 7a were then evaluated successfully with the validated UHPLC-MS/MS method. […] The AUC0–24h was about 517 and 3192 h × nmol/L at the doses of 5 and 30 mg/kg, respectively. The tmax was approximately 2 h, and t1/2 was 5 h. In the dose range of 5–30 mg/kg, the pharmacokinetics of 7a were almost linear. The mean plasma concentration-time curve of 7a after a single intravenous administration (1 mg/kg) and the major pharmacokinetic parameters can be found in Figure S14 and Table S1.
(§2) The main pharmacokinetic parameters were calculated using Phoenix WinNonlin 7.0 via a non-compartmental model (Pharsight, Mountain View, CA). […] Data were presented as mean ± SD.
Figure S12. 19F NMR (400 MHz, DMSO) of compound 7a: δ -56.89 ppm.
Figure S13. Mass spectrum of compound 7a (m/z 500.2).
Figure S14. Mean concentration-time curves of compound 7a after intravenous administration in rats (1 mg/kg).
Data were presented as mean ± SD, n=3.
Table S1. Main pharmacokinetics parameters of compound 7a after intravenous administration (mean ± SD, n=3).
T (h) C0 AUC0-t V (L/kg) Cl(L/h/kg) […]

[3] = Stability of 7a in rat plasma (QC samples, UHPLC-MS/MS); assay type: in vitro ADME
Experimental: QC samples were stored under different conditions, such as room temperature for 4 h, frozen-thawed for 3 cycles, frozen at −20 °C for 7 days, or stored in an auto-sampler for 24 h. The sample concentrations were calculated by the following calibration curve. The RE (%) and RSD (%) should be less than ±15%.

[4] = assay type: in vitro ADME, human; settings: for HLM (%) relative abundance (area ratio): incubation of 7a in human liver microsomes with NADPH
[5] = Pharmacokinetic study in rats after oral administration; assay type: in vivo, Sprague-Dawley rats; settings: for Cmax / Tmax / half-life / bioavailability / AUC(0-t): Sprague-Dawley, rat, plasma; for AUC(0-t): read-out: AUC0–24h
Experimental: Sprague-Dawley rats (8 weeks old, 180–220 g) were provided by Pengyue Laboratory Animal Technology Co., Ltd (Jinan, Shandong, China). All rats were fed adaptively for 1 week (20 °C–24 °C, 50%–70% relative humidity, 12/12 h light/dark cycle). A standard diet and boiled water were provided. The rats fasted for over 12h with free access to water before the study. Furthermore, 7a was dissolved DMSO (5%) and then diluted with saline. The rats were given 7a by gavage at 5 mg/kg and 30 mg/kg. In addition, 200 μL of blood was collected into a 1.5 mL tube added with heparin at 5 min, 15 min, 30 min, 1 h, 2 h, 4 h, 6 h, 8 h, 10 h, and 24 h after administration. Plasma was acquired by centrifugation (8000 rpm, 5 min) and all samples were immediately stored at −20 °C immediately. The guidelines of the Animal Ethics Committee of Luye Pharma Group Ltd. were strictly enforced during the animal experiments to ensure animal welfare.
as §2

[6] = autosampler 4 °C for 24 h, nominal 3 nM
[7] = autosampler 4 °C for 24 h, nominal 300 nM
[8] = autosampler 4 °C for 24 h, nominal 750 nM
[9] = rat plasma, freeze −20 °C for 7 days, nominal 3 nM
[10] = rat plasma, freeze −20 °C for 7 days, nominal 300 nM
[11] = rat plasma, freeze −20 °C for 7 days, nominal 750 nM
[12] = rat plasma, freeze-thaw for 3 cycles, nominal 3 nM
[13] = rat plasma, freeze-thaw for 3 cycles, nominal 300 nM
[14] = rat plasma, freeze-thaw for 3 cycles, nominal 750 nM
[15] = rat plasma, room temperature for 4 h, nominal 3 nM
[16] = rat plasma, room temperature for 4 h, nominal 300 nM
[17] = rat plasma, room temperature for 4 h, nominal 750 nM
[18] = both sexes, oral 5 mg/kg, mean of male and female rats
[19] = both sexes, oral 30 mg/kg, mean of male and female rats
[20] = both sexes, oral, rats, doses 5–30 mg/kg, overall statement

Structure (SMILES): CN1CCN(c2ccc(OC(F)(F)F)c(Nc3nccc(-c4cc5c(n4C)CCNC5=O)n3)c2)CC1 [compound 25, reference compound]
- IC50 (NCI-H2030 cells): 0.0747 µM
- IC50 (PLK1 kinase; read-out: PLK1 inhibition IC50): 0.00407 µM
- IC50 (HCT-116 cells): 0.0628 µM

Structure (SMILES): CN1CCN(c2ccc(OC(F)(F)F)c(Nc3nccc(-c4cc5c(=O)[nH]ccc5n4C)n3)c2)CC1 [compound 7a, 1-methyl-2-(2-((5-(4-methylpiperazin-1-yl)-2-(trifluoromethoxy)phenyl)amino)pyrimidin-4-yl)-1,5-dihydro-4H-pyrrolo[3,2-c] pyridin-4-one]
- IC50 (NCI-H2030 cells): 0.0385 µM
- IC50 (PLK1 kinase): 0.00089 µM
- PLK-1 activity and cytotoxicity, times higher than compound 25 (PLK1 kinase; relative to compound 25): more than 4 times
- IC50 (HCT-116 cells): 0.0306 µM
- RLM (%) relative abundance (area ratio) [1]: 5.34%
- AUC(0-t) [2]: 0.472 ± 0.032 µM·h
- C0 [2]: 481 ± 42 nM
- clearance [2]: 70 mL/min/kg
- half-life [2]: 2.4 ± 0.6 h
- Vd ([2]; read-out: Vss): 8.5 ± 1.3 L/kg
- Measured Concentrations [3, 6]: 3.05 ± 0.10 nM
- RE (stability) [3, 6]: 1.78%
- Measured Concentrations [3, 7]: 280 ± 11.9 nM
- RE (stability) [3, 7]: −6.67%
- Measured Concentrations [3, 8]: 701 ± 46.5 nM
- RE (stability) [3, 8]: −6.58%
- Measured Concentrations [3, 9]: 2.55 ± 0.13 nM
- RE (stability) [3, 9]: −14.9%
- Measured Concentrations [3, 10]: 272 ± 9.67 nM
- RE (stability) [3, 10]: −9.33%
- Measured Concentrations [3, 11]: 685 ± 34.7 nM
- RE (stability) [3, 11]: −8.71%
- Measured Concentrations [3, 12]: 2.73 ± 0.21 nM
- RE (stability) [3, 12]: −9.17%
- Measured Concentrations [3, 13]: 260 ± 10.8 nM
- RE (stability) [3, 13]: −13.4%
- Measured Concentrations [3, 14]: 649 ± 24.2 nM
- RE (stability) [3, 14]: −13.5%
- Measured Concentrations [3, 15]: 2.59 ± 0.17 nM
- RE (stability) [3, 15]: −13.7%
- Measured Concentrations [3, 16]: 261 ± 4.94 nM
- RE (stability) [3, 16]: −13%
- Measured Concentrations [3, 17]: 649 ± 17.9 nM
- RE (stability) [3, 17]: −13.4%
- stability of the parent in HLM ([4]; human liver microsomes): stable
- HLM (%) relative abundance (area ratio) [4]: 43.73%
- Cmax ([5]; oral 5 mg/kg, female rats): 102 ± 25 nM
- Tmax ([5]; oral 5 mg/kg, female rats): 0.8 ± 1 h
- half-life ([5]; oral 5 mg/kg, female rats): 4.6 ± 1.4 h
- bioavailability ([5]; oral 5 mg/kg, female rats, read-out: F): 19.9%
- Cmax ([5]; oral 5 mg/kg, male rats): 87 ± 45 nM
- Tmax ([5]; oral 5 mg/kg, male rats): 3 ± 2.6 h
- half-life ([5]; oral 5 mg/kg, male rats): 4.4 ± 0.9 h
- bioavailability ([5]; oral 5 mg/kg, male rats, read-out: F): 23.9%
- Cmax ([5]; oral 30 mg/kg, female rats): 428 ± 90 nM
- Tmax ([5]; oral 30 mg/kg, female rats): 2.3 ± 1.5 h
- half-life ([5]; oral 30 mg/kg, female rats): 6.1 ± 0.9 h
- bioavailability ([5]; oral 30 mg/kg, female rats, read-out: F): 22.3%
- Cmax ([5]; oral 30 mg/kg, male rats): 435 ± 81 nM
- Tmax ([5]; oral 30 mg/kg, male rats): 2 ± 1.9 h
- half-life ([5]; oral 30 mg/kg, male rats): 3.7 ± 1.3 h
- bioavailability ([5]; oral 30 mg/kg, male rats, read-out: F): 22.7%
- AUC(0-t) ([5]; both sexes, po, 5 mg/kg, oral 5 mg/kg, mean of male and female rats): ~0.517 µM·h
- AUC(0-t) ([5]; both sexes, po, 30 mg/kg, oral 30 mg/kg, mean of male and female rats): ~3.19 µM·h
- bioavailability ([5]; both sexes, po, rats, overall statement, read-out: oral bioavailability (F)): ~22%
- Cmax [5, 18]: 95 ± 33 nM
- Tmax [5, 18]: 1.9 ± 2.1 h
- half-life [5, 18]: 4.5 ± 1.1 h
- bioavailability ([5]; both sexes, oral 5 mg/kg, mean of male and female rats, read-out: F): 21.9%
- Cmax [5, 19]: 432 ± 77 nM
- Tmax [5, 19]: 2.2 ± 1.6 h
- half-life [5, 19]: 5.1 ± 1.6 h
- bioavailability ([5]; both sexes, oral 30 mg/kg, mean of male and female rats, read-out: F): 22.5%
- Tmax [5, 20]: ~2 h
- half-life [5, 20]: 5 h
- AUC(0-t) ([5]; female, po, 5 mg/kg, oral 5 mg/kg, female rats): 0.469 ± 0.064 µM·h
- AUC(0-t) ([5]; female, po, 30 mg/kg, oral 30 mg/kg, female rats): 3.16 ± 1.02 µM·h
- AUC(0-t) ([5]; male, po, 5 mg/kg, oral 5 mg/kg, male rats): 0.565 ± 0.132 µM·h
- AUC(0-t) ([5]; male, po, 30 mg/kg, oral 30 mg/kg, male rats): 3.22 ± 1.04 µM·h
- AUC0–24h ([5]; oral 30 mg/kg, mean of male and female rats, 30 mg/kg): 3.192 ± 0.922 µM·h

Structure (SMILES): Cn1c(-c2ccnc(Nc3cc(N4CCNCC4)ccc3OC(F)(F)F)n2)cc2c(=O)[nH]ccc21 [M2]
- RLM (%) relative abundance (area ratio) [1]: 6.53%
- HLM (%) relative abundance (area ratio) [4]: 34.76%
